Results published in patent US20040029823A1, “Antisense oligonucleotide compositions and methods for the modulation of JNK proteins” (priority 1997, published 2004).
Strand notation (5' to 3'): a small letter for the sugar, then the base; units joined by * are phosphorothioate-linked, units joined directly phosphodiester-linked; [ ] holds rarer units or linkages, { } end groups; capitals alone tell only the bases. e = 2'-O-(2-methoxyethyl) (MOE); [5mC] = 5-methylcytosine; d = 2'-deoxy (DNA)

Legend:
rat JNK2 mRNA = assay: Northern assay of rat JNK2 (p54a) mRNA in A10 aortic smooth muscle cells; format: cell-based; set-up: inhibition of rat JNK2 mRNA levels / % INHIBITION: concentration or dose not given beside the values; details: for % INHIBITION / % EXPRESSION: rat JNK2 (p54a) mRNA in A10 cells; for % EXPRESSION: relative to LIPOFECTIN-only control; for inhibition of rat JNK2 mRNA levels: A10 cells (Table 22); for % EXPRESSION JNK2 / capacity to modulate both JNK1 and JNK2 (Pan JNK): A10 cells; for capacity to modulate both JNK1 and JNK2 (Pan JNK): rat JNK1 and JNK2 mRNA
Description: (§1) In order to study the role of JNK proteins in animal models, oligonucleotides targeted to the genes encoding JNK1, JNK2 and JNK3 of Rattus norvegicus were prepared. These oligonucleotides are 2′-methoxyethoxy, phosphodiester/2′-hydroxyl, phosphorothioate/2′-methoxyethoxy, phosphodiester “gapmers” in which every cytosine residue is 5-methylcytosine (m5c). These antisense compounds were synthesized according to the methods of the disclosure. Certain of these oligonucleotides are additionally specifically hybridizable to JNK genes from other species as indicated herein. The oligonucleotides described in this Example were tested for their ability to modulate rat JNK mRNA levels essentially according to the methods described in the preceding Examples, with the exceptions that the cell line used was rat A10 aortic smooth muscle cells (ATCC No. ATCC CRL-1476) and the probes used were specific for rat JNK1, JNK2 or JNK3 (see infra). A10 cells were grown and treated with oligonucleotides essentially as described by (Cioffi et al. Mol. Pharmacol., 1997, 51, 383).
(§2) These antisense compounds were tested for their ability to modulate levels of p54? (JNK1) and p54a (JNK2) mRNA in A10 cells via Northern assays. Due to the high degree of sequence identity between the human and rat genes, radiolabeled human JNK1 (Example 3) and JNK2 (Example 4) cDNAs functioned as specific probes for the rat homologs.
These antisense compounds were tested for their ability to modulate levels of p54a (JNK2) mRNA in A10 cells using the radiolabeled human JNK2 cDNA as a probe as described supra. Oligonucleotides showing levels of inhibition from ≧ about 60% to about 100% of rat JNK2 mRNA levels include ISIS Nos. 18254, 18255, 18257, 18258, 18259, 18260 and 18265 (SEQ ID NOS: 125, 126, 128, 129, 130, 131 and 136, respectively). These oligonucleotides are preferred embodiments of the invention for modulating rat JNK2 expression. […] These oligonucleotides are thus more preferred embodiments of the invention for modulating rat JNK2 expression. ISIS 18259 (SEQ ID NO: 130) was chosen for use in further studies (infra).

rat JNK1 mRNA = assay: Northern assay of rat JNK1 (p54?) mRNA in A10 aortic smooth muscle cells; format: cell-based; details: for % EXPRESSION JNK1: A10 cells; for inhibition of rat JNK1 mRNA levels: A10 cells (Table 20)
Description: as §1, §2

[1] = rat JNK2 mRNA, oligonucleotides targeted to rat JNK1
[2] = rat JNK1 mRNA, oligonucleotides targeted to rat JNK1

Row | Substance | % INHIBITION (rat JNK2 mRNA) [%] | % EXPRESSION (rat JNK2 mRNA) [%] | % EXPRESSION JNK2 (rat JNK2 mRNA; [1]) [%] | % EXPRESSION JNK1 (rat JNK1 mRNA; [2]) [%] | inhibition of rat JNK1 mRNA levels (rat JNK1 mRNA) | also measured
1 | 10260 (antisense eAeTe[5mC]eTeG*d[5mC]*dG*dA*dG*dG*dT*dT*dT*d[5mC]*dA*eTe[5mC]eGeGe[5mC]) [compound 10260] | 59 | 41 | – | – | – | –
2 | 18254 (antisense eTe[5mC]eAeTeG*dA*dT*dG*dT*dA*dG*dT*dG*dT*d[5mC]*eAeTeAe[5mC]eA) [compound 18254] | 80 | 20 | – | – | – | –
3 | 18255 (antisense eTeGeTeGeG*dT*dG*dT*dG*dA*dA*d[5mC]*dA*d[5mC]*dA*eTeTeTeAeA) [compound 18255] | 79 | 21 | – | – | – | –
4 | 18256 (antisense e[5mC]e[5mC]eAeTeA*dT*dG*dA*dA*dT*dA*dA*d[5mC]*d[5mC]*dT*eGeAe[5mC]eAeT) [compound 18256] | 20 | 80 | – | – | – | –
5 | 18257 (antisense eGeAeTeAeT*d[5mC]*dA*dA*d[5mC]*dA*dT*dT*d[5mC]*dT*d[5mC]*e[5mC]eTeTeGeT) [compound 18257] | 68 | 32 | – | – | – | inhibition of rat JNK2 mRNA levels (rat JNK2 mRNA): ≥ 60%
6 | 18258 (antisense eGe[5mC]eTeTe[5mC]*dG*dT*d[5mC]*d[5mC]*dA*d[5mC]*dA*dG*dA*dG*eAeTe[5mC]e[5mC]eG) [compound 18258] | 81 | 19 | – | – | – | –
7 | 18259 (antisense eGe[5mC]eTe[5mC]eA*dG*dT*dG*dG*dA*d[5mC]*dA*dT*dG*dG*eAeTeGeAeG) [compound 18259] | 85 | 15 | – | – | – | % EXPRESSION JNK2 (rat JNK2 mRNA; dose response, 10 nM): 81%; % EXPRESSION JNK2 (rat JNK2 mRNA; dose response, 50 nM): 35%; % EXPRESSION JNK2 (rat JNK2 mRNA; dose response, 100 nM): 15%; % EXPRESSION JNK2 (rat JNK2 mRNA; dose response, 200 nM): 5%; % EXPRESSION JNK1 (rat JNK1 mRNA; dose response, 10 nM): 95%; % EXPRESSION JNK1 (rat JNK1 mRNA; dose response, 50 nM): 101%; % EXPRESSION JNK1 (rat JNK1 mRNA; dose response, 100 nM): 94%; % EXPRESSION JNK1 (rat JNK1 mRNA; dose response, 200 nM): 89%
8 | 18260 (antisense eAeTe[5mC]eTeG*d[5mC]*dG*dA*dG*dG*dT*dT*dT*d[5mC]*dA*eTe[5mC]eGeGe[5mC]) [compound 18260] | – | – | – | – | – | inhibition of rat JNK2 mRNA levels (rat JNK2 mRNA): ≥ 60%
9 | 18261 (antisense e[5mC]e[5mC]eAe[5mC]e[5mC]*dA*dG*d[5mC]*dT*d[5mC]*d[5mC]*d[5mC]*dA*dT*dG*eTeGe[5mC]eTe[5mC]) [compound 18261] | 53 | 47 | – | – | – | –
10 | 18262 (antisense e[5mC]eAeGeTeT*dA*d[5mC]*dA*d[5mC]*dA*dT*dG*dA*dT*d[5mC]*eTeGeTe[5mC]eA) [compound 18262] | 50 | 50 | – | – | – | –
11 | 18263 (antisense eAeAeGeAeG*dG*dA*dT*dT*dA*dA*dG*dA*dG*dA*eTeTeAeTeT) [compound 18263] | 37 | 63 | – | – | – | –
12 | 18264 (DNA eAeGe[5mC]eAeG*dA*dG*dT*dG*dA*dA*dA*dT*dA*d[5mC]*eAeAe[5mC]eTeT; antisense) [compound 18264] | 52 | 48 | – | – | – | –
13 | 18265 (DNA eTeGeTe[5mC]eA*dG*d[5mC]*dT*d[5mC]*dT*dA*d[5mC]*dA*dT*dT*eAeGeGe[5mC]eA; antisense) [compound 18265] | 62 | 38 | – | – | – | inhibition of rat JNK2 mRNA levels (rat JNK2 mRNA): ≥ 60%
14 | 18266 (DNA eAeGeTeAeA*dG*d[5mC]*d[5mC]*d[5mC]*dG*dG*dT*d[5mC]*dT*d[5mC]*e[5mC]eTeAeAeG; antisense) [compound 18266] | 34 | 66 | – | – | – | –
15 | 18267 (DNA eAeAeAeTeG*dG*dA*dA*dA*dA*dG*dG*dA*d[5mC]*dA*eGe[5mC]eAeGe[5mC]; antisense) [compound 18267] | 16 | 84 | – | – | – | –
16 | 21857 (DNA e[5mC]eAeAe[5mC]eG*dT*d[5mC]*d[5mC]*d[5mC]*dG*d[5mC]*dG*d[5mC]*dT*d[5mC]*eGeGe[5mC]e[5mC]eG; antisense) [compound 21857] | – | – | 91 | 24 | – | –
17 | 21858 (DNA e[5mC]e[5mC]eTeGe[5mC]*dT*d[5mC]*dG*d[5mC]*dG*dG*d[5mC]*dT*d[5mC]*d[5mC]*eGe[5mC]eGeTeT; antisense) [compound 21858] | – | – | 89 | 8 | at least 90% | –
18 | 21859 (DNA e[5mC]eTe[5mC]eAeT*dG*dA*dT*dG*dG*d[5mC]*dA*dA*dG*d[5mC]*eAeAeTeTeA) [compound 21859] | – | – | 106 | 5 | at least 90% | % EXPRESSION JNK2 (rat JNK2 mRNA; dose response, 10 nM): 101%; % EXPRESSION JNK2 (rat JNK2 mRNA; dose response, 50 nM): 98%; % EXPRESSION JNK2 (rat JNK2 mRNA; dose response, 100 nM): 99%; % EXPRESSION JNK2 (rat JNK2 mRNA; dose response, 200 nM): 101%; % EXPRESSION JNK1 (rat JNK1 mRNA; dose response, 10 nM): 74%; % EXPRESSION JNK1 (rat JNK1 mRNA; dose response, 50 nM): 25%; % EXPRESSION JNK1 (rat JNK1 mRNA; dose response, 100 nM): 11%; % EXPRESSION JNK1 (rat JNK1 mRNA; dose response, 200 nM): 8%
19 | 21860 (DNA eTeGeTeTeG*dT*d[5mC]*dA*d[5mC]*dG*dT*dT*dT*dA*d[5mC]*eTeTe[5mC]eTeG; antisense) [compound 21860] | – | – | 98 | 8 | at least 90% | –
20 | 21861 (DNA e[5mC]eGeGeTeA*dG*dG*d[5mC]*dT*d[5mC]*dG*d[5mC]*dT*dT*dA*eGe[5mC]eAeTeG; antisense) [compound 21861] | – | – | 13 | 6 | at least 90% | capacity to modulate both JNK1 and JNK2 (Pan JNK) (rat JNK2 mRNA): demonstrated a capacity to modulate both JNK1 and JNK2
21 | 21862 (DNA e[5mC]eTeAeGeG*dG*dA*dT*dT*dT*d[5mC]*dT*dG*dT*dG*eGeTeGeTeG; antisense) [compound 21862] | – | – | 133 | 6 | at least 90% | –
22 | 21863 (DNA e[5mC]eAeGe[5mC]eA*dG*dA*dG*dT*dG*dA*dA*dG*dG*dT*eGe[5mC]eTeTeG; antisense) [compound 21863] | – | – | 107 | 24 | – | –
23 | 21864 (DNA eTe[5mC]eGeTeT*d[5mC]*d[5mC]*dT*dG*d[5mC]*dA*dG*dT*d[5mC]*d[5mC]*eTeTeGe[5mC]e[5mC]; antisense) [compound 21864] | – | – | 106 | 8 | at least 90% | –
24 | 21865 (DNA e[5mC]e[5mC]eAeTeT*dT*d[5mC]*dT*d[5mC]*d[5mC]*d[5mC]*dA*dT*dA*dA*eTeGe[5mC]eAe[5mC]; antisense) [compound 21865] | – | – | 50 | 5 | at least 90% | –
25 | 21866 (DNA eTeGeAeAeT*dT*d[5mC]*dA*dG*dG*dA*d[5mC]*dA*dA*dG*eGeTeGeTeT; antisense) [compound 21866] | – | – | 98 | 8 | at least 90% | –
26 | 21867 (DNA eAeGe[5mC]eTeT*d[5mC]*dG*dT*d[5mC]*dT*dA*d[5mC]*dG*dG*dA*eGeAeTe[5mC]e[5mC]; antisense) [compound 21867] | – | – | 21 | 5 | at least 90% | capacity to modulate both JNK1 and JNK2 (Pan JNK) (rat JNK2 mRNA): demonstrated a capacity to modulate both JNK1 and JNK2
27 | 21868 (DNA e[5mC]eAe[5mC]eTe[5mC]*d[5mC]*dT*d[5mC]*dT*dA*dT*dT*dG*dT*dG*eTeGe[5mC]eTe[5mC]; antisense) [compound 21868] | – | – | 112 | 15 | – | –
